Measured values reported in the NIST ThermoML archive (doi:10.1021/je800548t).
Numbers after ± are expanded uncertainties.

Conditions: Liquid, Ebulliometric method (Recirculating still)

Row | SMILES | vapor or sublimation pressure (321 K) | vapor or sublimation pressure (325 K) | vapor or sublimation pressure (330 K) | vapor or sublimation pressure (335 K) | vapor or sublimation pressure (340 K) | vapor or sublimation pressure (345 K) | vapor or sublimation pressure (350 K) | vapor or sublimation pressure (355 K) | vapor or sublimation pressure (359 K) | vapor or sublimation pressure (305 K) | vapor or sublimation pressure (310 K) | vapor or sublimation pressure (315 K) | vapor or sublimation pressure (320 K) | vapor or sublimation pressure (342 K)
1 | CCO [ethanol] | 26.41 ± 0.21 kPa | 32.02 ± 0.26 kPa | 40.44 ± 0.33 kPa | 50.67 ± 0.41 kPa | 63 ± 0.51 kPa | 77.77 ± 0.63 kPa | 95.35 ± 0.77 kPa | 116.13 ± 0.93 kPa | 135.37 ± 1.1 kPa | – | – | – | – | –
2 | ClC(Cl)Cl [trichloromethane] | – | 73.88 ± 0.3 kPa | 87.71 ± 0.36 kPa | 103.5 ± 0.42 kPa | 121.45 ± 0.49 kPa | – | – | – | – | 34.81 ± 0.14 kPa | 42.47 ± 0.17 kPa | 51.43 ± 0.21 kPa | 61.85 ± 0.25 kPa | 129.28 ± 0.52 kPa
